Source: patent US20100331348A1, “TROPANE DERIVATIVES USEFUL AS PESTICIDES” (SYNGENTA CROP PROTECTION, INC., priority 2007, published 2010)

Assays:
[1] = test system: Puccinia recondita f.sp. tritici; experiment: Puccinia recondita f.sp. tritici (wheat brown rust) leaf disk assay; type: in vivo; conditions: foliar, 216 h, preventive, nine days after inoculation, read-out: control of fungal infection, Puccinia recondita f.sp. tritici
[2] = test system: Erysiphe graminis f.sp. tritici; experiment: Erysiphe graminis f.sp. tritici (wheat powdery mildew) leaf disk assay; type: in vivo; conditions: Blumeria graminis, foliar, 96 h, preventive, four days after inoculation, read-out: control of fungal infection, Erysiphe graminis fsp. tritici

SMILES: Fc1ccc(OC2C[C@H]3CC[C@@H](C2)N3c2ncnc3sccc23)cc1F (stereo partly drawn) [Example 1.18]
- pest or weed control at 200 ppm [1]: ≥ 80%
- pest or weed control at 200 ppm [2]: ≥ 80%

SMILES: O=C(Cc1ccccc1)c1ccc(OC2C[C@H]3CC[C@@H](C2)N3c2ncnc3sccc23)cc1 (stereo partly drawn) [Example 1.257]
- pest or weed control at 200 ppm [1]: ≥ 80%

SMILES: CC(=O)CCc1ccc(OC2C[C@H]3CC[C@@H](C2)N3c2ncnc3sccc23)cc1 (stereo partly drawn) [Example 2.40]
- pest or weed control at 200 ppm [1]: ≥ 80%

SMILES: FC(F)(F)c1cccc(OC2C[C@H]3CC[C@@H](C2)N3c2ccncn2)n1 (stereo partly drawn) [Example 2.86]
- pest or weed control at 200 ppm [1]: ≥ 80%
- pest or weed control at 200 ppm [2]: ≥ 80%

SMILES: COCc1ncnc(N2[C@@H]3CC[C@H]2CC(Oc2cccc(C(F)(F)F)n2)C3)c1OC (stereo partly drawn) [Example 2.137]
- pest or weed control at 200 ppm [1]: ≥ 80%
- pest or weed control at 200 ppm [2]: ≥ 80%

SMILES: Cn1cc(C(=O)N2[C@@H]3CC[C@H]2CC(Oc2cccc(C(F)(F)F)n2)C3)c(C(F)(F)F)c1 (stereo partly drawn) [Example 2.197]
- pest or weed control at 200 ppm [1]: ≥ 80%

SMILES: CCCOC(=O)c1ccc(OC2C[C@H]3CC[C@@H](C2)N3c2ncnc3sccc23)cc1 (stereo partly drawn) [Example 2.226]
- pest or weed control at 200 ppm [1]: ≥ 80%

SMILES: CCc1ncnc(N2C3CCC2CC(=CC(=O)NC(C)c2ccccc2)C3)c1Cl (stereo not drawn) [Example 3.10]
- pest or weed control at 200 ppm [1]: ≥ 80%

SMILES: C(#Cc1ccccc1)CC=C1CC2CCC(C1)N2c1ncnc2sccc12 [Example 3.26]
- pest or weed control at 200 ppm [1]: ≥ 80%

SMILES: C#CCN(CC#C)C1C[C@H]2CC[C@@H](C1)N2c1ncnc2sccc12 (stereo partly drawn) [Example 4.15]
- pest or weed control at 200 ppm [1]: ≥ 80%

SMILES: CCc1ncnc(N2C3CCC2CC(=NOCc2cc(C)cc(C)c2)C3)c1Cl [Example 5.11]
- pest or weed control at 200 ppm [1]: ≥ 80%

SMILES: CCc1ncnc(N2C3CCC2CC(=NOCc2cccc(Oc4ccccc4)c2)C3)c1Cl [Example 5.18]
- pest or weed control at 200 ppm [1]: ≥ 80%
- pest or weed control at 200 ppm [2]: ≥ 80%

SMILES: CCc1ncnc(N2C3CCC2CC(=NOCc2ccccc2-c2ccccc2)C3)c1Cl [Example 5.35]
- pest or weed control at 200 ppm [1]: ≥ 80%
- pest or weed control at 200 ppm [2]: ≥ 80%

SMILES: CCc1ncnc(N2C3CCC2CC(=NOCc2cccc(Cl)c2)C3)c1Cl [Example 5.37]
- pest or weed control at 200 ppm [1]: ≥ 80%
- pest or weed control at 200 ppm [2]: ≥ 80%

SMILES: CCc1ncnc(N2C3CCC2CC(=NOCc2cccc(Br)c2)C3)c1Cl [Example 5.39]
- pest or weed control at 200 ppm [1]: ≥ 80%
- pest or weed control at 200 ppm [2]: ≥ 80%

SMILES: CCc1ncnc(N2C3CCC2CC(=NOCc2cccc(CCl)c2)C3)c1Cl [Example 5.45]
- pest or weed control at 200 ppm [1]: ≥ 80%
- pest or weed control at 200 ppm [2]: ≥ 80%

SMILES: CCc1ncnc(N2C3CCC2CC(=NOCc2ccccc2I)C3)c1Cl [Example 5.46]
- pest or weed control at 200 ppm [1]: ≥ 80%
- pest or weed control at 200 ppm [2]: ≥ 80%

SMILES: CCc1ncnc(N2C3CCC2CC(=NOCc2cc(C)ccc2C)C3)c1Cl [Example 5.47]
- pest or weed control at 200 ppm [1]: ≥ 80%
- pest or weed control at 200 ppm [2]: ≥ 80%

SMILES: CCc1ncnc(N2C3CCC2CC(=NOCc2ccc(F)c(F)c2)C3)c1Cl [Example 5.56]
- pest or weed control at 200 ppm [1]: ≥ 80%
- pest or weed control at 200 ppm [2]: ≥ 80%

SMILES: CCc1ncnc(N2C3CCC2CC(=NOCc2ccc(-c4ccccc4C#N)cc2)C3)c1Cl [Example 5.58]
- pest or weed control at 200 ppm [1]: ≥ 80%
- pest or weed control at 200 ppm [2]: ≥ 80%

SMILES: CCc1ncnc(N2C3CCC2CC(=NOCc2cccc(Cl)c2Cl)C3)c1Cl [Example 5.59]
- pest or weed control at 200 ppm [1]: ≥ 80%
- pest or weed control at 200 ppm [2]: ≥ 80%

SMILES: CCc1ncnc(N2C3CCC2CC(=NOCc2ccc(OCc4ccccc4)cc2)C3)c1Cl [Example 5.64]
- pest or weed control at 200 ppm [1]: ≥ 80%
- pest or weed control at 200 ppm [2]: ≥ 80%

SMILES: CCc1ncnc(N2C3CCC2CC(=NOCc2cccc(OC(F)F)c2)C3)c1Cl [Example 5.65]
- pest or weed control at 200 ppm [1]: ≥ 80%
- pest or weed control at 200 ppm [2]: ≥ 80%

SMILES: CCc1ncnc(N2C3CCC2CC(=NOCc2cc(F)c(F)c(F)c2)C3)c1Cl [Example 5.67]
- pest or weed control at 200 ppm [1]: ≥ 80%
- pest or weed control at 200 ppm [2]: ≥ 80%

SMILES: CCc1ncnc(N2C3CCC2CC(=NOCc2cc(F)cc(F)c2F)C3)c1Cl [Example 5.80]
- pest or weed control at 200 ppm [1]: ≥ 80%
- pest or weed control at 200 ppm [2]: ≥ 80%

SMILES: CCc1ncnc(N2C3CCC2CC(=NOCc2cc(F)ccc2Br)C3)c1Cl [Example 5.83]
- pest or weed control at 200 ppm [1]: ≥ 80%

SMILES: CCc1ncnc(N2C3CCC2CC(=NOCc2c(F)c(F)c(F)c(F)c2F)C3)c1Cl [Example 5.84]
- pest or weed control at 200 ppm [1]: ≥ 80%
- pest or weed control at 200 ppm [2]: ≥ 80%

SMILES: CCc1ncnc(N2C3CCC2CC(=NOCc2ccc4ccccc4n2)C3)c1Cl [Example 5.89]
- pest or weed control at 200 ppm [1]: ≥ 80%
- pest or weed control at 200 ppm [2]: ≥ 80%

SMILES: CCc1ncnc(N2C3CCC2CC(=NOCC2COc4ccccc4O2)C3)c1Cl (stereo not drawn) [Example 5.93]
- pest or weed control at 200 ppm [1]: ≥ 80%
- pest or weed control at 200 ppm [2]: ≥ 80%

SMILES: CCc1ncnc(N2C3CCC2CC(=NOCc2cc(F)cc4c2OCOC4)C3)c1Cl [Example 5.121]
- pest or weed control at 200 ppm [1]: ≥ 80%
- pest or weed control at 200 ppm [2]: ≥ 80%

SMILES: CCc1ncnc(N2C3CCC2CC(=NOCc2noc(-c4ccc(C(F)(F)F)cc4)n2)C3)c1Cl [Example 5.126]
- pest or weed control at 200 ppm [1]: ≥ 80%
- pest or weed control at 200 ppm [2]: ≥ 80%

SMILES: COc1cc(CON=C2CC3CCC(C2)N3c2ncnc3sccc23)nc(N)n1 [Example 5.172]
- pest or weed control at 200 ppm [1]: ≥ 80%
- pest or weed control at 200 ppm [2]: ≥ 80%

SMILES: c1ccc(-c2ccc(CON=C3CC4CCC(C3)N4c3ncnc4sccc34)cc2)cc1 [Example 5.175]
- pest or weed control at 200 ppm [1]: ≥ 80%
- pest or weed control at 200 ppm [2]: ≥ 80%

SMILES: Cc1c(CON=C2CC3CCC(C2)N3c2ncnc3sccc23)ccc2ccccc12 [Example 5.176]
- pest or weed control at 200 ppm [2]: ≥ 80%

SMILES: Fc1cc(Cl)cnc1ON=C1CC2CCC(C1)N2c1ncnc2sccc12 [Example 5.182]
- pest or weed control at 200 ppm [1]: ≥ 80%
- pest or weed control at 200 ppm [2]: ≥ 80%

SMILES: FC(F)(F)c1cc(CON=C2CC3CCC(C2)N3c2ncnc3sccc23)cc(C(F)(F)F)c1 [Example 5.186]
- pest or weed control at 200 ppm [2]: ≥ 80%

SMILES: CCc1nc(Cl)c(CC)c(ON=C2CC3CCC(C2)N3c2ncnc3sccc23)n1 [Example 5.194]
- pest or weed control at 200 ppm [2]: ≥ 80%

SMILES: FC(F)(F)c1ccc(Cl)c(CON=C2CC3CCC(C2)N3c2ncnc3sccc23)c1 [Example 5.195]
- pest or weed control at 200 ppm [2]: ≥ 80%

SMILES: ClCc1cccc(CON=C2CC3CCC(C2)N3c2ncnc3sccc23)c1 [Example 5.200]
- pest or weed control at 200 ppm [2]: ≥ 80%

SMILES: Ic1ccccc1CON=C1CC2CCC(C1)N2c1ncnc2sccc12 [Example 5.201]
- pest or weed control at 200 ppm [1]: ≥ 80%
- pest or weed control at 200 ppm [2]: ≥ 80%

SMILES: N#Cc1ccccc1-c1ccc(CON=C2CC3CCC(C2)N3c2ncnc3sccc23)cc1 [Example 5.206]
- pest or weed control at 200 ppm [1]: ≥ 80%

SMILES: Cc1nc(ON=C2CC3CCC(C2)N3c2ncnc3sccc23)cc(N(C)C)n1 [Example 5.209]
- pest or weed control at 200 ppm [2]: ≥ 80%

SMILES: CCCON=C1CC2CCC(C1)N2c1ccnc2c1c(C)nn2C [Example 5.244]
- pest or weed control at 200 ppm [2]: ≥ 80%

SMILES: COc1nc(-c2ccc(C)cc2)nc(ON=C2CC3CCC(C2)N3c2ncnc3sccc23)c1C [Example 5.251]
- pest or weed control at 200 ppm [2]: ≥ 80%

SMILES: CSc1nc(Cl)c(-c2ccccc2)c(ON=C2CC3CCC(C2)N3c2ncnc3sccc23)n1 [Example 5.254]
- pest or weed control at 200 ppm [1]: ≥ 80%

SMILES: CCCCCCCCC1COC2(CC3CCC(C2)N3c2ncnc3sccc23)O1 (stereo not drawn) [Example 6.1]
- pest or weed control at 200 ppm [2]: ≥ 80%

SMILES: CC(NC(=O)CC1CC2CCC(C1)N2c1ncnc2sccc12)c1ccccc1 (stereo not drawn) [Example 7.13]
- pest or weed control at 200 ppm [1]: ≥ 80%

SMILES: CCCNC(=O)CC1CC2CCC(C1)N2c1ncnc(CC)c1Cl (stereo not drawn) [Example 7.30]
- pest or weed control at 200 ppm [1]: ≥ 80%

SMILES: CCc1ncnc(N2C3CCC2CC(CC(=O)NC(C)c2ccccc2)C3)c1Cl (stereo not drawn) [Example 7.31]
- pest or weed control at 200 ppm [1]: ≥ 80%
